“Also recorded” adds a separate entry of the source.
Assays:
human cardiomyocytes = experiment: Uptake of FITC-labeled peptides in human cardiomyocytes, fluorescence microscopy; format: cell-based; conditions: 2.25 μM FITC-labeled peptide
Experimental: Immortalized human cardiomyocytes (applied biological materials, Canada) were grown in Prigrow I medium supplemented with 10% FBS and 1% P/S in collagen coated flasks. Cells were plated in collagen coated glass slides in 6 wells plates and grown until confluence prior to experiments.
(§1) Fluorescently labeled peptides were labeled using fluorescein isothiocyanate (FITC) and were obtained from Pepscan (Lelystad, the Netherlands). The FITC-label was attached to an Ahx (6-aminohexanoic acid) spacer which was added to the N-terminal end of the peptide, the C-terminal part was amidated and peptides were made circular by disulfide cyclization. Peptides according to the invention had cysteine flanking moieties wherein the flanking moieties were directly adjacent to the targeting sequences SEQ ID NOs: 14-25.
(§2) Human control myotubes and primary human cardiomyocytes were washed 2 times with PBS and incubated with 2.25 μM of FITC-labeled peptides in serum free media for 3 h at 37° C. and 5% CO2. Cells were washed 3 times with PBS and fixed with cold methanol (−20° C.) for 5 min (human control myotubes) or 10 min (human cardiomyocytes). Subsequently the glass slides were shortly air dried, and embedded on microscope slides with Vectashield hard set with 4′,6-diamidino-2-phenylindole (DAPI) mounting media (Vector laboratories). After drying 30 min, slides were analyzed with fluorescence microscopy (Leica DM5500 B) using a CCD camera (Leica DFC 360 FX). Representative pictures are shown.
FITC-labeled peptides comprising SEQ ID NO:24 or SEQ ID NO: 25 were incubated at a dose of 2.25 μM, slides were imbedded in mounting media containing DAPI and analyzed with Leica microscopy using a CCD camera (Leica DFC 360 FX); Human control myotubes for 1 or 3 h (FIG. 3a) and human cardiomyocytes for 3 h (FIG. 3b).

Human control myotubes = experiment: Uptake of FITC-labeled peptides in human control myotubes, fluorescence microscopy; format: cell-based; conditions: 2.25 μM FITC-labeled peptide
Experimental: Human control myoblasts (Km155.c25 cells, (Zhu et al., 2007)) were grown in skeletal muscle cell growth medium (Promocell, C-23160) supplemented with an extra 15% FBS (from, Gibco, the Netherlands) and 50 μg/ml gentamicin (PAA Laboratories) in uncoated flasks until 70-80% confluence was reached. Cells were plated in a 6 wells plate with 0.5% gelatin coated glass slides (Sigma Aldrich, the Netherlands), at a density of 1×10^5 cells per well, 48 hours prior to differentiation. Reaching 90% confluence, medium was switched to differentiation medium (Dulbecco's medium (without phenol red) with 2% FBS, 50 μg/ml gentamicin, 2% glutamax and 1% glucose (all from Gibco-BRL, the Netherlands)). Cells were allowed to differentiate for 3-5d.
as §1
as §2, with “shown. […]” for “shown.”
The linear versions of the peptides comprising SEQ ID NO: 24 or SEQ ID NO: 25, in which the Cys residues were replaced with Ala residues, were labelled as described above and incubated with human control myotubes for 3 h (FIG. 3d).

| Substance | fluorescence in the cells (human cardiomyocytes; 3 h) | fluorescence in the cells (human cardiomyocytes; 3 h, listed as SEQ ID NO:24) | fluorescence in the cells (Human control myotubes; 1 h) | fluorescence in the cells (Human control myotubes; 3 h) | fluorescence in the cells (Human control myotubes; 3 h, listed as SEQ ID NO:24) | fluorescence in the cells (human cardiomyocytes; 10 minutes) | fluorescence in the cells (Human control myotubes; 10 minutes) |
| --- | --- | --- | --- | --- | --- | --- | --- |
| SEQ ID NO: 24: FITC-Ahx N-terminal, C-terminal amide, disulfide-cyclized peptide with Cys residues flanking targeting sequence LNSLFGS (N-terminal FITC-Ahx, C-terminal amide, disulfide cyclized; Randomly generated peptide) | Brightest fluorescence | clear fluorescence throughout the cells and in the nuclei | clear fluorescence throughout the cells and in the nuclei | Brightest fluorescence | clear fluorescence throughout the cells and in the nuclei | – | – |
| SEQ ID NO: 25: FITC-Ahx N-terminal, C-terminal amide, disulfide-cyclized peptide with Cys residues flanking targeting sequence QLFPLFR (N-terminal FITC-Ahx, C-terminal amide, disulfide cyclized; Randomly generated peptide) | Brightest fluorescence; also recorded: clear fluorescence throughout the cells and in the nuclei | – | clear fluorescence throughout the cells and in the nuclei | Brightest fluorescence; also recorded: clear fluorescence throughout the cells and in the nuclei | – | positive fluorescence | positive fluorescence |

Reference: patent US11459358B2, “Substances for targeting various selected organs or tissues” (BioMarin Technologies B.V., priority 2016, dated 2022)
